Tests used:
Experiment in all cases: relative viability (nuclei count vs DMSO), 5 days (fraction); higher = more cells survive
[1] = compound: COc1cc(-c2nn([C@H]3CC[C@H](N4CCN(C(C)=O)CC4)CC3)c3ncnc(N)c23)ccc1NC(=O)c1cc2ccccc2n1C + Nc1ncn([C@H]2C[C@H](O)[C@@H](CO)O2)c(=O)n1 [Decitabine] (partner 2 µM)
Outline: (§1)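 Cells from lung cancer lines were seeded into 1536-well plates and, one day later, dosed by pin tool. Treatments were either a single drug or a fixed dose of an anchor drug with five library-drug doses (not always all listed) in √10 steps. After 5 days, nuclei were stained in a one-step fixation (final 0.05% Triton X-100, 1% formaldehyde, 1 ug/ml Hoechst) and counted on 4× images, and relative viability is the treated-to-vehicle nuclei ratio, as the median of duplicate plates.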

[2] = compound: COc1cc(-c2nn([C@H]3CC[C@H](N4CCN(C(C)=O)CC4)CC3)c3ncnc(N)c23)ccc1NC(=O)c1cc2ccccc2n1C + C[C@@H](Oc1cc(-c2cnn(C3CCNCC3)c2)cnc1N)c1c(Cl)ccc(F)c1Cl [Crizotinib] (partner 1 µM)
Outline: as §1

[3] = compound: CO[C@@H]1[C@H](N(C)C(=O)c2ccccc2)C[C@H]2O[C@]1(C)n1c3ccccc3c3c4c(c5c6ccccc6n2c5c31)C(=O)NC4 [Midostaurin] + CC(=O)c1c(C)c2cnc(Nc3ccc(N4CCNCC4)cn3)nc2n(C2CCCC2)c1=O [Palbociclib] (partner 0.5 µM)
Outline: as §1

Midostaurin + AZD7762 = compound: CO[C@@H]1[C@H](N(C)C(=O)c2ccccc2)C[C@H]2O[C@]1(C)n1c3ccccc3c3c4c(c5c6ccccc6n2c5c31)C(=O)NC4 [Midostaurin] + NC(=O)Nc1cc(-c2cccc(F)c2)sc1C(=O)N[C@H]1CCCNC1 [AZD7762] (partner 0.2 µM)
Outline: as §1

Midostaurin + Alpelisib = compound: CO[C@@H]1[C@H](N(C)C(=O)c2ccccc2)C[C@H]2O[C@]1(C)n1c3ccccc3c3c4c(c5c6ccccc6n2c5c31)C(=O)NC4 [Midostaurin] + Cc1nc(NC(=O)N2CCC[C@H]2C(N)=O)sc1-c1ccnc(C(C)(C)C(F)(F)F)c1 [Alpelisib] (partner 2 µM)
Outline: as §1

Cell Line	relative viability ([1]; first compound 0.0128 µM)	relative viability ([1]; first compound 0.04048 µM)	relative viability ([1]; first compound 0.128 µM)	relative viability ([1]; first compound 1.28 µM)	relative viability ([2]; first compound 0.0128 µM)	relative viability ([2]; first compound 0.04048 µM)	relative viability ([2]; first compound 0.128 µM)	relative viability ([2]; first compound 1.28 µM)	relative viability ([3]; first compound 0.01 µM)	relative viability ([3]; first compound 0.03162 µM)	relative viability ([3]; first compound 0.1 µM)	relative viability ([3]; first compound 0.3162 µM)	relative viability (Midostaurin + AZD7762; first compound 0.01 µM)	relative viability (Midostaurin + AZD7762; first compound 0.03162 µM)	relative viability (Midostaurin + AZD7762; first compound 0.1 µM)	relative viability (Midostaurin + AZD7762; first compound 0.3162 µM)	relative viability (Midostaurin + Alpelisib; first compound 0.01 µM)	relative viability (Midostaurin + Alpelisib; first compound 0.03162 µM)	relative viability (Midostaurin + Alpelisib; first compound 0.1 µM)	relative viability (Midostaurin + Alpelisib; first compound 0.3162 µM)
NCI-H1650	0.49	0.497	0.341	0.515	0.898	1.07	0.957	0.638	0.297	0.409	0.343	0.522	–	–	–	–	–	–	–	–
BEN	0.571	0.733	0.708	0.582	0.8	0.996	0.756	0.576	0.515	0.473	0.52	0.467	0.743	0.659	0.722	0.726	1.03	1.02	0.968	1.06
EMC-BAC-2	1	0.941	0.913	0.955	0.759	0.848	0.731	0.532	0.489	0.531	0.489	0.456	1.08	1.03	1.04	1.08	0.765	0.717	0.586	0.61
NCI-H1299	–	–	–	–	0.966	1.07	0.987	1.13	–	–	–	–	–	–	–	–	1.03	1.05	1.04	1.03
EBC-1	–	–	–	–	0.193	0.198	0.24	0.185	–	–	–	–	–	–	–	–	0.871	0.735	0.746	0.605
NCI-H1648	0.595	0.447	0.482	0.452	–	–	–	–	0.35	–	–	0.285	0.766	–	–	0.656	–	–	–	–
ChaGo-K-1	0.493	0.513	0.497	0.508	1.17	1.13	1.03	0.882	0.912	1	0.889	0.935	0.895	0.837	0.677	0.946	–	–	–	–
COR-L23	0.509	0.451	0.446	0.499	0.59	0.845	0.675	0.602	0.259	0.346	0.285	0.207	–	–	–	–	0.737	0.659	0.818	0.497
COR-L 105	0.645	0.724	0.653	0.559	0.771	0.864	0.594	0.678	0.414	0.416	0.396	0.4	–	–	–	–	1.08	0.823	0.778	1.05
NCI-H596	1.33	1.18	0.89	0.716	0.943	1.2	1.01	0.64	–	–	–	–	1.25	1.13	1.1	1.05	0.587	0.546	0.508	0.432
NCI-H2023	0.219	0.219	0.218	0.228	0.587	0.736	0.592	0.412	0.482	0.428	0.341	0.192	–	–	–	–	0.608	0.563	0.526	0.583

Reference: the supplement of paper PMC10307832
